Marks after values point to notes of the source that are not given here.
Key:
[1] = test system: promastigote form of Leishmania (L) amazonensis (LV79 isolate); test: Promastigote viability by the MTT method in RPMI medium; type: cell-based
Description: Viability and/or cellular proliferative assays of promastigote and amastigote forms are also performed by the MTT (diphenyl tetrazolium 3-[4,5-dimethylthiazol-2il]2,5-bromide) method as described by Moreira, et al. (Moreira, M. E. C., Del Portillo, H. A., Milder, R. V., Balanco, J. M. F. and Barcinski, M. A. Heat shock induction of apoptosis in promastigotes of the unicellular organism Leishmania (Leishmania) amazonensis, J. Cell Physiol 167, 305-313, 1996), modified.
After incubation of parasitic forms with the compounds, as described above, for predetermined periods of time for each experiment (24, 48, 72 hours, etc.), an 1.0 mL aliquot of cellular suspension is collected from each culture tube or vial and transferred to microcentrifuge tubes, where they are centrifuged at 14.000 rpm for 3 minutes, the culture medium is aspirated and discharged. To the sedimented cells are add 200 μL of PBS. After that, the volume in PBS of the cellular suspensions is splitted into two wells (duplicates of 100 μL each) of a 96 well culture plate. To each duplicate, […] of MTT (5 mg/mL stock solution, […]) are added. After 1 h or 1 h 30 min, at a temperature of 22° C. (promastigotes) or 34° C. (amastigotes), 100 μL of 10% SDS are added to each well to interrupt the reaction, to lyse the cells and to dissolve the formazan crystals, resulting in an homogeneous blue solution appropriate to the absorbance measure by a spectrophotometer for culture microplates (3550 BIORAD model, Richmond, Calif.), at 595 nm as test wavelength and 690 nm as the reference wavelength.
The optical density (O.D.) values correspond to MTT enzymatic reduction by the metabolic active cells. Consequently, the O.D. is directly proportional to the number of viable cells of the cellular suspension. The progressive increase of O.D. indicates cellular proliferation. Results are expressed as arithmetic average of the optical density duplicates.
Blanks of reaction are obtained by incubating of the specific medium employed in each assay, in addition to MTT, and different HB-1 concentrations. The brownish-yellow color of HB-1 exerts certain interference on the colorimetric assay at different magnitudes, according to the medium and to HB-1 concentration. In general the O.D. blank ranged among assays from 0.002 to 0.020.
In this assay, viability of the promastigote form Leishmania is assessed by the MTT method, when incubated in RPMI medium, in the presence of HB-1 or of its respective controls in DMSO. It is also possible to verify if the effect of HB-1 could be detected in the stationary phase of the growth curve.
For the incubations, promastigotes of the LV79 isolate, in 1st passage and in Day 7 of culture, are employed, from a 1.0×10^6/mL as initial inoculum. The final reaction volume is of 3.0 mL. The results of the viability determination for the promastigote forms of Leishmania (L) amazonensis treated with HB-1 in RPMI medium are shown in the next Table and in FIG. 35.

[2] = test system: B16F10 melanoma; test: Cell cycle phases by flow cytometry of melanoma dorsal tumors treated for 14 days; type: in vivo, C57BL/6J mice; conditions: 15 mg/kg HB-1 diluted in Miglyol 810, intraperitoneal
Description: Determination of Cell Cycle Phases Through Flow Cytometry of Melanoma Dorsal Tumors Treated for 14 Days with the HB-1 Compound by the Intraperitoneal Route.
Aliquots of the tumoral cells suspensions (10^6 cells/mL) for the control group that received Miglyol 810® vehicle and of the animals treated with the HB-1 compound for 14 days by the intraperitoneal route were immediately frozen in citrate (2 mM), sucrose (25 mM), and 0.05% dimethyl sulfoxide (DMSO) buffer, kept in liquid nitrogen up to the moment of use. After sample thawing in an ice bath, the cells were incubated with 375 μL of 0.03 g/L trypsin (Sigma) for 10 minutes, at room temperature, and neutralized with 0.5 g/L trypsin inhibitor (Sigma), 0.1 g/L ribonuclease A (Sigma), and 1.2 g/L spermine (Sigma). The samples were analysed by a flow cytometer (Becton-Dickson) and the percentage of cells was evaluated for the different phases of the cell cycle, apoptosis level (Sub-G1), and DNA content in phase S, quiescent cells (G0/G1), and cells in premytosis (G2/M).

[3] = test system: B16F10 melanoma; test: B16F10 melanoma tumors implanted in C57BL/6J mice, intraperitoneal treatment; tumor area and volume; type: in vivo; conditions: diluted in Miglyol 810, intraperitoneal 1.15 μg/kg daily, to Day 14; tumor volume and area
Description: After the Day 4 of tumor cells implant (2×10^5 tumoral cells/mL), the animals were splitted in two groups: the test group, treated with HB-1 compound diluted in Miglyol 810® and the control group, which received only the diluent (Miglyol 810®) in the same volume as the test group. The animals were daily treated by intraperitoneal route. Concomitantly, measurements of animal weight and tumor size (two measures—length×width) were performed and tumor aspect registered by photographies.
After the Day 14, the animals were sacrificed by cervical displacement, tumors were removed, and necropsy performed to remove all internal organs and macroscopic lesions for hystopathologic analysis.
Tumoral parameters were obtained by calculation of tumor average area (A) and volume (V), through the following formulas A=πR^2 and V=4/3πR^3, where (R=average tumor radius). […]
After tumoral cell implant, the animals were treated with the HB-2 compound diluted in Miglyol 810® and with (HB2+HB-1) conjugate whereas the control group received the same volume of diluent and by the same administration route (intraperitoneal—100 μl). Daily, the animals received the compounds (100 μl) and the control group received Miglyol 810®, the animals were weighted, and the tumors were measured (length×width) and photographed. […]

COc1cc(C=CC(=O)C=Cc2ccc(O)c(OC)c2)ccc1O [HB-1, 1,5-Bis-(4-hydroxy-3-methoxy-phenyl)-penta-1,4-dien-3-one]
Optical Density 595/690 nm (average value from duplicates) ([1]; HB-1 3.12 μg/mL, 24 hours): 0.062
Optical Density 595/690 nm (average value from duplicates) ([1]; HB-1 3.12 μg/mL, 48 hours): 0.085
Optical Density 595/690 nm (average value from duplicates) ([1]; HB-1 3.12 μg/mL, 72 hours): 0.104*
Optical Density 595/690 nm (average value from duplicates) ([1]; HB-1 3.12 μg/mL, 144 hours): 0.021
effect in words ([1]; HB-1 6.25 μg/mL): leishmaniostatic effect
Optical Density 595/690 nm (average value from duplicates) ([1]; HB-1 6.25 μg/mL, 24 hours): 0.039
Optical Density 595/690 nm (average value from duplicates) ([1]; HB-1 6.25 μg/mL, 48 hours): 0.033
Optical Density 595/690 nm (average value from duplicates) ([1]; HB-1 6.25 μg/mL, 72 hours): 0.044
Optical Density 595/690 nm (average value from duplicates) ([1]; HB-1 6.25 μg/mL, 144 hours): 0.031
Optical Density 595/690 nm (average value from duplicates) ([1]; HB-1 12.5 μg/mL, 24 hours): 0.010
Optical Density 595/690 nm (average value from duplicates) ([1]; HB-1 12.5 μg/mL, 48 hours): 0.004
Optical Density 595/690 nm (average value from duplicates) ([1]; HB-1 12.5 μg/mL, 72 hours): 0.003
Optical Density 595/690 nm (average value from duplicates) ([1]; HB-1 12.5 μg/mL, 144 hours): 0.005
Optical Density 595/690 nm (average value from duplicates) ([1]; HB-1 25 μg/mL, 24 hours): 0.004
Optical Density 595/690 nm (average value from duplicates) ([1]; HB-1 25 μg/mL, 48 hours): 0.005
Optical Density 595/690 nm (average value from duplicates) ([1]; HB-1 25 μg/mL, 72 hours): 0.002
Optical Density 595/690 nm (average value from duplicates) ([1]; HB-1 25 μg/mL, 144 hours): 0.005
Optical Density 595/690 nm (average value from duplicates) ([1]; HB-1 50 μg/mL, 24 hours): 0.008
Optical Density 595/690 nm (average value from duplicates) ([1]; HB-1 50 μg/mL, 48 hours): 0.004
Optical Density 595/690 nm (average value from duplicates) ([1]; HB-1 50 μg/mL, 72 hours): 0.005
Optical Density 595/690 nm (average value from duplicates) ([1]; HB-1 50 μg/mL, 144 hours): 0.005
Optical Density 595/690 nm (average value from duplicates) ([1]; HB-1 100 μg/mL, 24 hours): 0.016
Optical Density 595/690 nm (average value from duplicates) ([1]; HB-1 100 μg/mL, 48 hours): 0.012
Optical Density 595/690 nm (average value from duplicates) ([1]; HB-1 100 μg/mL, 72 hours): 0.011
Optical Density 595/690 nm (average value from duplicates) ([1]; HB-1 100 μg/mL, 144 hours): 0.011
effect in words ([1]; HB-1 above 12.5 μg/mL): clear leishmanicidal effect
cell viability in words ([1]; HB-1 between 6.25 μg/mL and 100 μg/mL, since first 24 hours): irreversibly compromise cell viability
tumoral cell population in the G0/G1 phase of the cell cycle [2]: significantly reduces
percentage of inhibitory treatment for B16F10 melanoma [3]: higher than 98%

From patent US8859625B2, “Methods to prepare penta-1,4-dien-3-ones and substituted cyclohexanones and derivatives with antitumoral and antiparasitic properties, the compounds and their uses” (Universidade Bandeirante de Sao Paulo-Academia, Paulista …, priority 2006, dated 2014)
